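Exposure lasted 48 hours, with cells grown in 96-well plates and compounds tested at five concentrations. TGI: total growth inhibition.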
How the values were obtained:
Test in all cases: growth of human tumour cells (NCI), 48 h
SK-OV-3 ovarian = tested on: SK-OV-3 ovarian
UO-31 renal = tested on: UO-31 renal
DU-145 prostate = tested on: DU-145 prostate
SF-268 CNS = tested on: SF-268 CNS
NCI/ADR-RES ovarian = tested on: NCI/ADR-RES ovarian
SN12C renal = tested on: SN12C renal
NCI-H226 lung = tested on: NCI-H226 lung
MCF7 breast = tested on: MCF7 breast
786-0 renal = tested on: 786-0 renal

SMILES	TGI (SK-OV-3 ovarian) [µM]	TGI (UO-31 renal) [µM]	TGI (DU-145 prostate) [µM]	TGI (SF-268 CNS) [µM]	TGI (NCI/ADR-RES ovarian) [µM]	TGI (SN12C renal) [µM]	TGI (NCI-H226 lung) [µM]	TGI (MCF7 breast) [µM]	TGI (786-0 renal) [µM]
COc1cc(/C=C2\CCc3cc(OC)c(OC)cc3C2=O)cc(OC)c1	> 100	> 100	78.5	> 100	10.9	38.2	> 100	> 84.3	48.7
CCCCCC(/C=N/NC(N)=S)C(O)(C(F)(F)F)C(F)(F)F (stereo not given)	> 10	–	> 10	> 10	> 10	> 10	> 10	> 10	> 10
OCC1CCCCN1Cc1nc2ccc(Cl)cc2[nH]1 (stereo not given)	> 100	> 100	> 100	> 100	> 100	> 100	> 100	> 100	> 100
c1ccc(-c2cc(-c3cc(-c4ccccc4)n[nH]3)[nH]n2)cc1	> 100	> 100	> 100	> 100	> 100	> 100	> 100	> 100	> 100
COC(=O)[C@H]1ON2O[C@@H](O[C@H]3CCCC[C@@H]3C(C)(C)c3ccccc3)C[C@@H]3CC[C@H]1[C@@]32C	> 100	> 100	> 100	> 100	> 100	> 100	> 100	> 100	> 100
CC1CSc2nc3[nH]c(=S)[nH]c3c(=O)n2C1 (stereo not given)	> 100	> 100	> 100	> 100	> 100	> 100	> 100	> 100	> 100
O=[N+]([O-])C(=C/C1CCCCC1)/C(=C\C1CCCCC1)[N+](=O)[O-]	42.7	22.4	26.7	14.7	7.29	11.5	17.9	26.4	4.11
CCOC(=O)/C=C/[C@H](O[Si](c1ccccc1)(c1ccccc1)c1ccccc1)C(C)(C)C	> 31.6	> 31.6	> 31.6	> 31.6	> 31.6	> 31.6	> 31.6	> 31.6	> 31.6
O/N=C1\CC2(N3CCOCC3)CCC1(Cc1ccccc1)CC2	83	> 100	> 100	76.6	> 100	> 100	83.1	> 100	41.9
C/C=C/[C@@H]1O[C@H](CC#C[Si](C)(C)C)[C@@]2(C=O)C(C)=CC[C@H](C(C)C)[C@@H]12	> 100	3.53	51.8	52.3	71	34.8	41.7	63.1	31.3
COc1ccc2c(-c3ccc(O)cc3)c(Oc3ccccc3)c(=O)oc2c1	> 100	27.5	> 50.8	> 100	> 100	> 42.1	> 87.2	> 100	> 52.1
CCOC(=O)c1c(NC(=O)c2ccccc2)sc2c1CCC2	–	> 100	> 100	> 100	> 100	> 100	> 100	> 100	> 100
c1ccc2c(Cc3c[nH]c4ccccc34)c[nH]c2c1	51	27.7	34.6	45.7	62	31.7	22.5	> 100	33.6
COC(=O)c1cc(C)ccc1CC(Cc1ccccc1C)C(=O)OC (stereo not given)	> 100	> 100	> 100	> 100	> 100	> 100	> 100	94.8	> 100
O=C(c1ccco1)N1CCN(C(=O)c2ccco2)C1=S	40.8	10.1	7.99	21.8	> 79.7	16.4	51.5	11	12.8
CC1(C)OC2CN(C(=O)OCc3ccccc3)C(CO)C2O1 (stereo not given)	> 100	> 100	> 100	> 100	> 100	> 100	> 100	> 100	> 100
CO/N=C1/C(n2[nH]c(=O)n(-c3ccccc3)c2=O)C2C=CC1n1c(=O)n(-c3ccccc3)c(=O)n12 (stereo not given)	> 100	> 100	> 100	> 100	> 100	> 100	> 100	> 100	> 100
COc1ccc(/C=N/n2c(C)n[nH]c2=O)cc1	> 100	> 100	> 100	> 100	> 100	> 100	> 100	> 100	> 100
O=[N+]([O-])/C(C(Cl)=C(Cl)Cl)=C(/Sc1ccccc1)N1CCOCC1	79.8	16.6	25.2	17	38.4	19.3	26.5	8.53	4.51
CN(C)CCCNC(=O)CNC(=O)c1cc(NC(=O)c2cc(NC(=O)c3cc(NC(=O)CCNC(=O)c4cc(NC(=O)c5cc(NC(=O)c6nccn6C)cn5C)cn4C)cn3C)cn2C)cn1C	> 100	> 100	> 100	> 100	> 100	> 100	> 100	> 100	> 100
CC(=O)NC1CCC(NC(=O)OC(C)(C)C)C(NC(=O)OC(C)(C)C)C1 (stereo not given)	> 100	> 100	> 100	> 100	> 100	> 100	> 100	> 100	> 100
C=CC1(CBr)CCC(C(C)(C)Br)O1 (stereo not given)	29	25.7	25.7	38.2	30.7	33.1	46.7	34.1	6.56
CCOC(=O)C1(Cc2ccccc2)CCN(C(=O)c2ccccc2)C2C1C2(Cl)Cl (stereo not given)	> 100	58.9	> 100	91.8	69	32.4	63.4	71	44.2

— PubChem BioAssay (NCI)
